Measured values taken from patent US7829580B2, “Cyclic amine derivative having heteroaryl ring” (Sankyo Company, Ltd., priority 2006, dated 2010).
Counter-ions that a name gives are not always drawn.

How the values were obtained:
[1] = test system: platelet coagulation; assay: Inhibitory activities of test compounds against platelet coagulation in vitro (ADP-induced, rat platelet-rich plasma, aggregometer); type: cell-based; settings: 10 μg/ml test substance in rat PRP, maximum rate of platelet coagulation over 5 min; for inhibition at 10 µg/mL: 5 min, read-out: Test Example 1 (% inhibition)
Method: Confirmation of Inhibitory Activities of Test Compounds Against Platelet Coagulation In Vitro
Three to four male Sprague-Dawley rats (8 weeks of age, Japan SLC., Inc.) per group were used in the present test. Platelet coagulation was determined by platelet aggregometer (MCM Hema Tracer 313M, MC Medical, Inc.) according to modified methods described by Born et al. (Journal of Physiology, vol. 168, 178 (1963)). Blood (6.3 ml) was collected from abdominal aorta of rats anesthetized with pentobarbital sodium (40 mg/kg) with a microsyringe containing 0.7 ml of sodium citrate at a concentration of 3.8% as anti-coagulant. The obtained blood containing sodium citrate was centrifuged (230×g for 15 min at room temperature) and plate-rich plasma (hereinafter referred to as PRP) fraction was isolated. Furthermore, after PRP was isolated, the blood was further centrifuged (2,000×g for 10 min at room temperature) and platelet-poor plasma (hereinafter referred to as PPP) fraction was isolated. Platelet count in PRP was determined by automated hematology analyzer (KX-21N, SYSMEX CORPORATION) and adjusted as 5×10^8/ml. After PRP (239 μl) was put into each cuvette, the test substance dissolved in dimethyl sulfoxide (DMSO, 1 μl) was added to the PRP solution and assessed by automated hematology analyzer. In the control group, DMSO solution (1 μl) instead of the test substance solution was added to the PRP solution. After warming at 37° C. for 1.5 min, 10 μl of adenosine-5′-diphosphate (ADP) solution (final concentration: […]) was added, and platelet coagulation was induced. Platelet coagulation was determined for 5 min and the maximum rate of plate coagulation determined.

[2] = test system: platelet coagulation; assay: Inhibitory activities of test compounds against platelet coagulation ex vivo (oral administration to rats 4 hrs prior to blood collection, ADP-induced, PRP); type: in vivo, rat; settings: for inhibition at 10 µg/mL: Rattus norvegicus, Platelet, po, 4 h, read-out: Test Example 2 (% inhibition); for Test Example 2 (% inhibition): head prints (10 μg/ml), orally administered to rats 4 hrs prior to blood collection, ADP-induced coagulation in PRP
Method: Three to four male Sprague-Dawley rats (8 weeks of age, Japan SLC., Inc.) per group were used in the present test. […] In the control group, the vehicle was similarly and orally administered at the rate of 1 mL/kg 4 hrs prior to the blood collection. […] The obtained blood containing sodium citrate was centrifuged (230×g for 15 min at room temperature) and PRP fraction was isolated. Furthermore, after PRP was isolated, the blood was further centrifuged (2,000×g for 10 min at room temperature) and PPP fraction was isolated. Platelet count in PRP was determined by automated hematology analyzer (KX-21N, SYSMEX CORPORATION) and adjusted as 5×10^8/ml. After PRP (240 μl) was put into each cuvette, the platelet coagulation was assessed by automated hematology analyzer. After warming at 37° C. for 1.5 min, 10 μl of ADP solution (final concentration: […]) was added, and platelet coagulation was induced. Platelet coagulation was determined for 5 min and the maximum rate of plate coagulation determined.

Work on O=C(O)Cn1ccc(/C=C2\CN(C(C(=O)C3CC3)c3ccccc3F)CCC2S)n1 (stereo not drawn) [Example 77, (E)-3-{[1-(Carboxymethyl)-1H-pyrazol-3-yl]methylidene}-1-[2-cyclopropyl-1-(2-fluorophenyl)-2-oxoethyl]-4-sulfanylpiperidine hydrochloride] yielded an inhibition at 10 µg/mL [1] of 76% and an inhibition at 10 µg/mL [2] of 77%.

For CCOC(=O)CCn1ccc(/C=C2\CN(C(C(=O)C3CC3)c3ccccc3F)CCC2S)n1 (stereo not drawn) [Example 112, (E)-1-[2-Cyclopropyl-1-(2-fluorophenyl)-2-oxoethyl]-3-({1-[2-(ethoxycarbonyl)ethyl]-1H-pyrazol-3-yl}methylidene)-4-sulfanylpiperidine hydrochloride], the inhibition at 10 µg/mL [1] was 75% and the inhibition at 10 µg/mL [2] was 91%.

CC(=O)SC1CCN(C(C(=O)C2CC2)c2ccccc2F)C/C1=C\c1ccn(CCC(=O)O)n1 (stereo not drawn) [Example 114, (E)-4-(Acetylsulfanyl)-3-{[1-(2-carboxyethyl)-1H-pyrazol-3-yl]methylidene}-1-[2-cyclopropyl-1-(2-fluorophenyl)-2-oxoethyl]piperidine hydrochloride] gave an inhibition at 10 µg/mL [2] of 81%.

With O=C(O)CCCn1ccc(/C=C2\CN(C(C(=O)C3CC3)c3ccccc3F)CCC2S)n1 (stereo not drawn) [Example 117, (E)-3-{[1-(3-Carboxypropyl)-1H-pyrazol-3-yl]methylidene}-1-[2-cyclopropyl-1-(2-fluorophenyl)-2-oxoethyl]-4-sulfanylpiperidine hydrochloride] the inhibition at 10 µg/mL [1] was 70% and the inhibition at 10 µg/mL [2] was 63%.

In the case of O=C(O)CCCCn1ccc(/C=C2\CN(C(C(=O)C3CC3)c3ccccc3F)CCC2S)n1 (stereo not drawn) [Example 121, (E)-3-{[1-(4-Carboxybutyl)-1H-pyrazol-3-yl]methylidene}-1-[2-cyclopropyl-1-(2-fluorophenyl)-2-oxoethyl]-4-sulfanylpiperidine hydrochloride], the inhibition at 10 µg/mL [1] is reported as 55% and the inhibition at 10 µg/mL [2] is reported as 72%.

O=C(O)CCn1nncc1/C=C1\CN(C(C(=O)C2CC2)c2ccccc2F)CCC1S (stereo not drawn) [Example 134, (E)-3-{[1-(2-Carboxyethyl)-1H-1,2,3-triazol-5-yl]methylidene}-1-[2-cyclopropyl-1-(2-fluorophenyl)-2-oxoethyl]-4-sulfanylpiperidine hydrochloride] showed an inhibition at 10 µg/mL [1] of 85%.

With O=C(O)CCCn1cc(/C=C2\CN(C(C(=O)C3CC3)c3ccccc3F)CCC2S)nn1 (stereo not drawn) [Example 143, (E)-3-{[1-(3-Carboxypropyl)-1H-1,2,3-triazol-4-yl]methylidene}-1-[2-cyclopropyl-1-(2-fluorophenyl)-2-oxoethyl]-4-sulfanylpiperidine hydrochloride] the inhibition at 10 µg/mL [1] was 81% and the inhibition at 10 µg/mL [2] was 69%.

CCOC(=O)Cn1ccc(/C=C2/CN(C(C(=O)C3CC3)c3ccccc3F)CCC2S)n1 (stereo not drawn) [Example 154, (Z)-1-[2-Cyclopropyl-1-(2-fluorophenyl)-2-oxoethyl]-3-{[1-(ethoxycarbonylmethyl)-1H-pyrazol-3-yl]methylidene}-4-sulfanylpiperidine hydrochloride] showed an inhibition at 10 µg/mL [2] of 79%.

With CONC(=O)Cn1ccc(/C=C2\CN(C(C(=O)C3CC3)c3ccccc3F)CCC2S)n1.Cl (stereo not drawn) [Example 192, (E)-1-[2-Cyclopropyl-1-(2-fluorophenyl)-2-oxoethyl]-3-{[1-(N-methoxycarbamoylmethyl)-1H-pyrazol-3-yl]methylidene}-4-sulfanylpiperidine hydrochloride] the “Test Example 1 (% inhibition)” value [1] was 84% and the “Test Example 2 (% inhibition)” value [2] was 81%.

Cl.O=C(C1CC1)C(c1ccccc1F)N1CCC(S)/C(=C/c2c[nH]nn2)C1 (stereo not drawn) [Example 235, (E)-1-[2-Cyclopropyl-1-(2-fluorophenyl)-2-oxoethyl]-4-sulfanyl-3-{[1(2)H-1,2,3-triazol-4(5)-yl]methylidene}piperidine hydrochloride] was tested, and the “Test Example 1 (% inhibition)” value [1] was 77% and the “Test Example 2 (% inhibition)” value [2] was 54%.

O=C(O)CCn1ncc(/C=C2\CN(C(C(=O)C3CC3)c3ccccc3F)CCC2S)n1 (stereo not drawn) [Example 242, (E)-3-{[2-(Carboxyethyl)-2H-1,2,3-triazol-4-yl]methylidene}-1-[2-cyclopropyl-1-(2-fluorophenyl)-2-oxoethyl]-4-sulfanylpiperidine hydrochloride] showed an inhibition at 10 µg/mL [1] of 75% and an inhibition at 10 µg/mL [2] of 82%.

With Cl.O=C(O)CCn1cc(/C=C2\CN(C(C(=O)C3CC3)c3ccccc3F)CCC2S)cn1 (stereo not drawn) [Example 249, (E)-3-{[2-(Carboxyethyl)-1H-pyrazol-4-yl]methylidene}-1-[2-cyclopropyl-1-(2-fluorophenyl)-2-oxoethyl]-4-sulfanylpiperidine hydrochloride] the “Test Example 1 (% inhibition)” value [1] was 81% and the “Test Example 2 (% inhibition)” value [2] was 88%.

O=C(O)CCn1nnc(/C=C2\CN(C(C(=O)C3CC3)c3ccccc3F)CCC2S)n1 (stereo not drawn) [Example 257, (E)-3-{[2-(2-Carboxyethyl)-2H-tetrazol-5-yl]methylidene}-1-[2-cyclopropyl-1-(2-fluorophenyl)-2-oxoethyl]-4-sulfanylpiperidine hydrochloride] gave an inhibition at 10 µg/mL [1] of 87% and an inhibition at 10 µg/mL [2] of 51%.

Compound O=C(O)CCn1nnnc1/C=C1\CN(C(C(=O)C2CC2)c2ccccc2F)CCC1S (stereo not drawn) [Example 258, (E)-3-{[1-(2-Carboxyethyl)-1H-tetrazol-5-yl]methylidene}-1-[2-cyclopropyl-1-(2-fluorophenyl)-2-oxoethyl]-4-sulfanylpiperidine hydrochloride] has an inhibition at 10 µg/mL [1] of 85% and an inhibition at 10 µg/mL [2] of 76%.

O=C(CCCn1nncc1/C=C1\CN(C(C(=O)C2CC2)c2ccccc2F)CCC1S)NO (stereo not drawn) [Example 262, (E)-1-[2-Cyclopropyl-1-(2-fluorophenyl)-2-oxoethyl]-3-({1-[3-(N-hydroxycarbamoyl)propyl]-1H-1,2,3-triazol-5-yl}methylidene)-4-sulfanylpiperidine hydrochloride] gave an inhibition at 10 µg/mL [1] of 71% and an inhibition at 10 µg/mL [2] of 91%.
